{"source": "paper PMC12254823", "about": "(Acta Pharmaceutica Sinica. B, 2025)", "key": {"[1]": {"molecular_target": "H1 PA-PB1 heterodimeric complex (Influenza A virus, UniProt P15659)", "assay_type": "biochemical"}, "PA-C K643A": {"molecular_target": "PA-C K643A (Influenza A virus, UniProt P15659, K643A)", "assay_type": "binding, influenza A virus (H1)"}}, "note": "“And” between values parts separate entries of the source, which are not always exact repeats. Identical values can stand only once."}
{"molecule": "COc1ccc(NC(=S)NCc2cccc3cn[nH]c23)cc1OC", "note": "[Compound 24, 1-[(1H-Indazol-7-yl)methyl]-3-(3,4-dimethoxyphenyl)thiourea]", "values": [{"measurement": "PA-PB1 complex co-immunoprecipitated compared to DMSO control", "setting": "[1]", "result": "53.5% ± 7.9% and 53.5%"}, {"measurement": "Melting temperature (Tm)", "setting": "PA-C K643A", "result": "50.2 ± 1.9", "unit": "°C"}]}
